# Data: US20260176270A1 (Exelixis, Inc., priority 2022, published 2026)
# Like-named read-outs stand apart in the source and are kept apart here.
# Experiments:
# PKMYT1 = biological target: T1, PKMYT1 (Homo sapiens, UniProt Q99640); test: ADP-Glo PKMYT1 ATP-depletion assay; details: 50 nM PKMYT1, 13.3 nM CDK1, read-out: Biochemical IC50
# T1 construct: PKMYT1 (93 kD, full length, N-terminal GST tag from Signal Chem); GST (N); purchased Signal Chem
# T1 sequence (Q99640 1-499): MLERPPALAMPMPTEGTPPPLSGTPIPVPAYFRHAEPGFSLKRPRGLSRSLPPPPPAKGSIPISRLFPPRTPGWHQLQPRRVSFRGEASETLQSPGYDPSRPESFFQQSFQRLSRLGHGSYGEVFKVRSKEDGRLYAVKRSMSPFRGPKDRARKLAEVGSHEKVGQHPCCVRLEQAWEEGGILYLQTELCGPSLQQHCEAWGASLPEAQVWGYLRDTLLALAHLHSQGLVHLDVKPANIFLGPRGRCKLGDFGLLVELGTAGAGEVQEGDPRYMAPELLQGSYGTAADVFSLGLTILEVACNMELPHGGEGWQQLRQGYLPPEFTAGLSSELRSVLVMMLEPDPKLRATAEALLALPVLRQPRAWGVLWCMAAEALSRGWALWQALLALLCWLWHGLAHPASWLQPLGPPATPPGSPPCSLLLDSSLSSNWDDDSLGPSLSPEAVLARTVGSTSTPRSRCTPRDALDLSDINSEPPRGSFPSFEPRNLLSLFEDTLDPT
# Summary of the method: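 Full-length N-terminal GST-tagged PKMYT1 (50 nM) with GST-CDK1 (13.3 nM) as substrate and 88 µM ATP, in Hepes buffer with MgCl2, MnCl2, DTT and BSA; DMSO <1%. Incubated 120 min at RT. ADP formed was quantified by ADP-Glo luminescence and used to derive biochemical IC50.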
# [1] = test system: phosphorylation of CDK1 at Thr14 in HCC1806 cells; test: Cell lysate AlphaLISA assay measuring inhibition of phosphorylation of CDK1 Thr14; type: cell-based; details: read-out: Cellular IC50
# Summary of the method: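 HCC1806 cells seeded overnight, then treated 4 h at 37 °C, 5% CO2 with compounds in DMSO; washed and lysed, lysates frozen overnight at −80 °C. CDK1 Thr14 phosphorylation read by AlphaLISA SureFire Ultra; data normalized to DMSO (0% inhibition) and 3 μM reference compound to give IC50.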
Compound,IC50 (PKMYT1),IC50 ([1]; 4 hours),"IC50 ([1]; Homo sapiens, HCC1806, 4 h)"
"Cc1c(O)cccc1-c1c(N)c(C(N)=O)cc2nc(C)c(=O)n(C)c12 (atropisomer, axis not shown) [Compound 171]",50 to 500 nM,1000 to 5000 nM,–
CCNc1cnc2c(-c3c(C)ccc(O)c3C)c(N)c(C(N)=O)cc2n1 [Compound 326],50 to 500 nM,–,1000 to 5000 nM
NC(=O)c1nc2cccnc2c(-c2cccc3c2CC(=O)N3)c1N [Compound 293],≥ 5000 nM,–,≥ 5000 nM
"COc1ccc2nc(C(N)=O)c(N)c(-c3c(C)ccc(O)c3C)c2c1 [Compound 48, 3-Amino-4-(3-hydroxy-2,6-dimethylphenyl)-6-methoxyquinoline-2-carboxamide]",50 to 500 nM,–,50 to 500 nM
"NC(=O)c1nc2cccnc2c(-c2cccc3[nH]nc(F)c23)c1N (atropisomer, axis not shown) [Compound 304]",≥ 5000 nM,≥ 5000 nM,–
Cc1ncncc1-c1c(N)c(C(N)=O)nc2cccnc12 [Compound 232],1000 to 5000 nM,–,≥ 5000 nM
Cc1c(-c2c(N)c(C(N)=O)nc3cccnc23)cnn1C [Compound 320],≥ 5000 nM,–,1000 to 5000 nM
"Cc1c(O)cccc1-c1c(N)c(C(N)=O)cc2ccn(C)c(=O)c12 (atropisomer, axis not shown) [Compound 337]",500 to 1000 nM,1000 to 5000 nM,–
"NC(=O)c1cc2nccnc2c(-c2cc(O)ccc2Cl)c1N [Compound 121, 7-Amino-8-(2-chloro-5-hydroxyphenyl)quinoxaline-6-carboxamide]",50 to 500 nM,–,1000 to 5000 nM
Cc1c(F)cncc1C1=c2ncccc2=NC(C(N)=O)C1N (stereo not shown) [Compound 225],≥ 5000 nM,≥ 5000 nM,–
NC(=O)c1nc2cccnc2c(-c2cccc3[nH]cnc23)c1N [Compound 181],≥ 5000 nM,–,≥ 5000 nM
Cc1c(O)cncc1-c1c(N)c(C(N)=O)nc2c1NCCC2 [Compound 334],1000 to 5000 nM,–,≥ 5000 nM
Cc1c(O)cccc1-c1c(N)c(C(N)=O)cc2c1ncc(=O)n2C [Compound 219],1000 to 5000 nM,–,≥ 5000 nM
"Cc1ccc2c(-c3cccc(O)c3C)c(N)c(C(N)=O)nc2c1 (single isomer, unassigned) [Compound 49, (M)-3-Amino-4-(3-hydroxy-2-methylphenyl)-7-methylquinoline-2-carboxamide]",500 to 1000 nM,1000 to 5000 nM,–
"Cc1c(O)cc(Cl)cc1-c1c(N)c(C(N)=O)nc2cccnc12 (atropisomer, axis not shown) [Compound 290]",50 to 500 nM,50 to 500 nM,–
"Cc1ccc(O)c(C)c1-c1c(N)c(C(N)=O)nc2c(C)cccc12 (single isomer, unassigned) [Compound 33]",1000 to 5000 nM,≥ 5000 nM,–
"Cc1ccc2[nH]ncc2c1-c1c(N)c(C(N)=O)nc2cccnc12 (single isomer, unassigned) [Compound 7, (P)-3-amino-4-(5-methyl-1H-indazol-4-yl)-1,5-naphthyridine-2-carboxamide]",50 to 500 nM,1000 to 5000 nM,–
Cc1ccc(O)c(C)c1-c1c(N)c(C(N)=O)nc2ccc(C(F)(F)F)cc12 [Compound 34],1000 to 5000 nM,–,1000 to 5000 nM
"Cc1ccc(O)c(C)c1-c1c(N)c(C(N)=O)nc2nccnc12 [Compound 126, 7-amino-8-(3-hydroxy-2,6-dimethylphenyl)pyrido[2,3-b]pyrazine-6-carboxamide]",< 50 nM,–,50 to 500 nM
"NC(=O)c1nc2cccnc2c(-c2c(F)ccc3[nH]ncc23)c1N (atropisomer, axis not shown) [Compound 244]",50 to 500 nM,500 to 1000 nM,–
NC(=O)c1nc2cccnc2c(-c2ccnc3[nH]ncc23)c1N [Compound 191],1000 to 5000 nM,–,≥ 5000 nM
COc1ccnc2c(-c3c(C)ccc(O)c3C)c(N)c(C(N)=O)cc12 [Compound 330],< 50 nM,–,< 50 nM
NC(=O)c1cc2nccnc2c(-c2c(Cl)ccc3[nH]ncc23)c1N [Compound 142],50 to 500 nM,1000 to 5000 nM,–
"Cc1n[nH]c2cccc(-c3c(N)c(C(N)=O)cc4nccnc34)c12 (single isomer, unassigned) [Compound 118, (M)-7-Amino-8-(3-methyl-1H-indazol-4-yl)quinoxaline-6-carboxamide]",50 to 500 nM,1000 to 5000 nM,–
NC(=O)c1nc2cccnc2c(-c2c(F)ccc3[nH]ncc23)c1N [Compound 220],50 to 500 nM,1000 to 5000 nM,–
Cc1c(Cl)cncc1C1=c2ncccc2=NC(C(N)=O)C1N (stereo not shown) [Compound 239],≥ 5000 nM,≥ 5000 nM,–
"Cc1ccc(O)c(C)c1-c1c(N)c(C(N)=O)nc2ccc(F)cc12 (atropisomer, axis not shown; (P)) [Compound 24, (P)-3-amino-6-fluoro-4-(3-hydroxy-2,6-dimethylphenyl) quinoline-2-carboxamide]",1000 to 5000 nM,≥ 5000 nM,–
"Cc1ccc(O)c(C)c1-c1c(N)c(C(N)=O)nc2ccc(Cl)cc12 [Compound 36, 3-Amino-6-chloro-4-(3-hydroxy-2,6-dimethyl-phenyl) quinoline-2-carboxamide]",50 to 500 nM,–,1000 to 5000 nM
"Cc1c(O)cccc1-c1c(N)c(C(N)=O)nc2cccc(F)c12 [Compound 56, 3-Amino-5-fluoro-4-(3-hydroxy-2-methyl-phenyl)quinoline-2-carboxamide]",50 to 500 nM,–,500 to 1000 nM

# Second part, the molecule after the results:
IC50 (PKMYT1),IC50 ([1]; 4 hours),"IC50 ([1]; Homo sapiens, HCC1806, 4 h)",Compound
50 to 500 nM,1000 to 5000 nM,–,"Cc1ccc(O)c(C)c1-c1c(N)c(C(N)=O)nc2ccccc12 [Compound 22, 3-Amino-4-(3-hydroxy-2,6-dimethylphenyl)quinoline-2-carboxamide]"
50 to 500 nM,1000 to 5000 nM,–,"Cc1ccc2[nH]ncc2c1-c1c(N)c(C(N)=O)cc2nccnc12 (single isomer, unassigned) [Compound 78, (P)-7-Amino-8-(5-methyl-1H-indazol-4-yl)quinoxaline-6-carboxamide]"
≥ 5000 nM,≥ 5000 nM,–,"Cc1ccc(-c2c(N)c(C(N)=O)nc3cccnc23)c(C)c1O (atropisomer, axis not shown) [Compound 287]"
500 to 1000 nM,–,≥ 5000 nM,"Cc1ccc(O)c(C)c1-c1cc(C(N)=O)cc2nccnc12 [Compound 74, 8-(3-Hydroxy-2,6-dimethyl-phenyl)quinoxaline-6-carboxamide]"
50 to 500 nM,–,1000 to 5000 nM,Cc1c(O)cccc1-c1c(N)c(C(N)=O)nc2ncccc12 [Compound 237]
1000 to 5000 nM,–,≥ 5000 nM,COc1cnc(F)c(-c2c(N)c(C(N)=O)nc3cccnc23)c1 [Compound 229]
≥ 5000 nM,≥ 5000 nM,–,"NC(=O)c1nc2c(c(-c3cc(O)cnc3F)c1N)NCCC2 (atropisomer, axis not shown) [Compound 296]"
1000 to 5000 nM,–,≥ 5000 nM,"Cc1ccc2c(-c3cccc(O)c3C)c(N)c(C(N)=O)nc2c1 [Compound 46, 3-Amino-4-(3-hydroxy-2-methylphenyl)-7-methylquinoline-2-carboxamide]"
1000 to 5000 nM,–,≥ 5000 nM,N#Cc1cccc2nc(C(N)=O)c(N)c(-c3cncnc3)c12 [Compound 236]
≥ 5000 nM,–,≥ 5000 nM,Cc1cccc(C)c1-c1c(N)c(C(N)=O)cc2nccnc12 [Compound 308]
1000 to 5000 nM,≥ 5000 nM,–,"Cc1ccc(O)c(C)c1-c1c(N)c(C(N)=O)cc2cc(Cl)cnc12 (atropisomer, axis not shown) [Compound 235]"
50 to 500 nM,–,500 to 1000 nM,Cc1c(F)cncc1-c1c(N)c(C(N)=O)nc2cccnc12 [Compound 208]
≥ 5000 nM,–,≥ 5000 nM,Cc1ncccc1-c1c(N)c(C(N)=O)nc2cccnc12 [Compound 207]
50 to 500 nM,500 to 1000 nM,–,"Cc1c(O)cccc1-c1c(N)c(C(N)=O)cc2ncccc12 (atropisomer, axis not shown; (M)) [Compound 68, (M)-6-Amino-5-(3-hydroxy-2-methylphenyl)quinoline-7-carboxamide]"
50 to 500 nM,–,500 to 1000 nM,COc1cncc(C2=c3ncccc3=NC(C(N)=O)C2N)c1C (stereo not shown) [Compound 186]
50 to 500 nM,–,1000 to 5000 nM,NC(=O)c1cc2nccnc2c(-c2cccc(O)c2C(F)(F)F)c1N [Compound 199]
< 50 nM,< 50 nM,–,"Cc1ccc(O)c(C)c1-c1c(N)c(C(N)=O)nc2nccnc12 (single isomer, unassigned) [Compound 127, (P)-7-Amino-8-(3-hydroxy-2,6-dimethylphenyl)pyrido[2,3-b]pyrazine-6-carboxamide]"
50 to 500 nM,–,50 to 500 nM,"Cc1ccc(O)c(C)c1-c1c(N)c(C(N)=O)cc2nc(C(F)(F)F)cnc12 [Compound 101, 7-Amino-8-(3-hydroxy-2,6-dimethylphenyl)-3-(trifluoromethyl)quinoxaline-6-carboxamide]"
